Numbered stars: 1 amine (or outer) side, 2 acyl side, 3 side chain; on linkers, the order of the positions; unused ones are H or OH. Peptide text beside a SMILES is read from it. * marks the point of attachment. AMC = Cc1cc(=O)oc2cc(N*)ccc12; Cbz = O=C(OCc1ccccc1)*; Boc = CC(C)(C)OC(=O)*; CO = O=C([*:1])[*:2]
System: T1, oligopeptidase B (OPB); Nagaimo protease
T1 construct: native, purified from tubers; monomer, 75 kDa by gel filtration, 81 kDa by reducing SDS-PAGE; internal tryptic peptide SAGGLLMGAVLNMR
Experiment: fluorometric AMC release, Lineweaver-Burk
Type: biochemical, Dioscorea polystachya
Settings: Tris-HCl pH 8.0, 37 °C
Description: fluorometric AMC release, Lineweaver-Burk on oligopeptidase B (OPB); Nagaimo protease

| Structure (SMILES) | Km |
| --- | --- |
| Cc1cc(=O)oc2cc(NC(=O)[C@H](CCCNC(=N)N)NC(=O)c3ccccc3)ccc12 [Bz-Arg-MCA] | 10 µM |
| Cc1cc(=O)oc2cc(NC(=O)[C@H](CCCCN)NC(=O)[C@H](CC(C)C)NC(=O)[C@@H](NC(=O)OC(C)(C)C)C(C)C)ccc12 [Boc-Val-Leu-Lys-MCA] (Boc-Val-Leu-Lys-{AMC}) | 10 µM |
| Cc1cc(=O)oc2cc(NC(=O)[C@@H](N)CCCNC(=N)N)ccc12 [Arg-MCA] | 17.9 µM |
| Cc1cc(=O)oc2cc(NC(=O)[C@H](CCCNC(=N)N)NC(=O)[C@@H]3CCCN3C(=O)[C@@H](NC(=O)OC(C)(C)C)C(C)C)ccc12 [Boc-Val-Pro-Arg-MCA] (Boc-Val-Pro-Arg-{AMC}) | 12.5 µM |
| Cc1cc(=O)oc2cc(NC(=O)[C@H](CCCNC(=N)N)NC(=O)[C@H](CCCNC(=N)N)NC(=O)[C@H](CCC(N)=O)NC(=O)OC(C)(C)C)ccc12 [Boc-Gln-Arg-Arg-MCA] (Boc-Gln-Arg-Arg-{AMC}) | 15 µM |
| Cc1cc(=O)oc2cc(NC(=O)[C@H](CCCCN)NC(=O)[C@H](CCCCN)NC(=O)[C@H](CCC(=O)O)NC(=O)OC(C)(C)C)ccc12 [Boc-Glu-Lys-Lys-MCA] (Boc-Glu-Lys-Lys-{AMC}) | 5 µM |

Second part, the molecule after the results:

| Km | Structure (SMILES) |
| --- | --- |
| 10 µM | Cc1cc(=O)oc2cc(NC(=O)[C@H](CCCNC(=N)N)NC(=O)[C@@H](NC(=O)[C@@H](NC(=O)OCc3ccccc3)C(C)C)C(C)C)ccc12 [Z-Val-Val-Arg-MCA] (Cbz-Val-Val-Arg-{AMC}) |
| 10 µM | Cc1cc(=O)oc2cc(NC(=O)[C@H](CCCNC(=N)N)NC(=O)[C@H](CCCNC(=N)N)NC(=O)OCc3ccccc3)ccc12 [Z-Arg-Arg-MCA] (Cbz-Arg-Arg-{AMC}) |
| 10 µM | Cc1cc(=O)oc2cc(NC(=O)[C@H](CCCNC(=N)N)NC(=O)[C@H](Cc3ccccc3)NC(=O)[C@@H]3CCCN3)ccc12 [Pro-Phe-Arg-MCA] (H-Pro-Phe-Arg-{AMC}) |
| 11.8 µM | Cc1cc(=O)oc2cc(NC(=O)[C@H](CCCNC(=N)N)NC(=O)[C@@H]3CCCN3C(=O)CNC(=O)OCc3ccccc3)ccc12 [Z-Gly-Pro-Arg-MCA] (Cbz-Gly-Pro-Arg-{AMC}) |
| 12.5 µM | Cc1cc(=O)oc2cc(NC(=O)[C@H](CCCNC(=N)N)NC(=O)[C@H](CC(C)C)NC(=O)OCc3ccccc3)ccc12 [Z-Leu-Arg-MCA] |
| 11 µM | Cc1cc(=O)oc2cc(NC(=O)[C@H](CCCNC(=N)N)NC(=O)[C@H](Cc3ccccc3)NC(=O)OCc3ccccc3)ccc12 [Z-Phe-Arg-MCA] (Cbz-Phe-Arg-{AMC}) |

Target: T1, oligopeptidase B (OPB); Nagaimo protease
Experiment: fluorometric AMC release, inhibitor titration
Type: biochemical, Dioscorea polystachya
Settings: 100 μM Bz-Arg-MCA, 50 mM Tris-HCl pH 8.0, 10 min preincubation at 23 °C, assay 37 °C
Description: fluorometric AMC release, inhibitor titration on oligopeptidase B (OPB); Nagaimo protease

| IC50 | Structure (SMILES) |
| --- | --- |
| 210 nM | CC(C)[C@H](NC(=O)[C@H](CCCNC(=N)N)NC(=O)N[C@@H](Cc1ccccc1)C(=O)O)C(=O)N[C@H](C=O)CCCNC(=N)N [Antipain] ({Phe-CO}-Arg-Val-Arg-aldehyde) |
| 120 nM | CC(=O)N[C@@H](CC(C)C)C(=O)N[C@@H](CC(C)C)C(=O)N[C@H](C=O)CCCNC(=N)N [Leupeptin] |

Same assay, conditions: 100 μM Bz-Arg-MCA, 50 mM Tris-HCl pH 8.0, 10 min preincubation at 23 °C, assay 37 °C; covalent

| Structure (SMILES) | IC50 |
| --- | --- |
| O=c1oc(Cl)c(Cl)c2ccccc12 [DCI, 3,4-dichloroisocoumarin] | 30000 nM |
| Cc1ccc(S(=O)(=O)N[C@@H](CCCCN)C(=O)CCl)cc1 [TLCK] | 70 nM |
| NCCc1ccc(S(=O)(=O)F)cc1 [AEBSF, 4-(2-aminoethyl)-benzenesulfonyl fluoride] | 700 nM |

Same assay, conditions: 100 μM Bz-Arg-MCA, 50 mM Tris-HCl pH 8.0, 10 min preincubation at 23 °C, assay 37 °C; covalent, cysteine-directed

| IC50 | Structure (SMILES) |
| --- | --- |
| 880000 nM | CCN1C(=O)C=CC1=O [NEM, N-ethylmaleimide] |

— PMC12169749, “Isolation, biochemical characterization, and primary structure and active site determination of Dioscorea opposita (‘Nagaimo’) oligopeptidase B” (Biochemistry and Biophysics Reports, 2025)
